Reference: patent US6569882B2, “Bis-sulfonamide hydroxyethyl-amino retroviral protease inhibitors” (G. D. Searle & Co., priority 1995, dated 2003)
Like-named read-outs stand apart in the source and are kept apart here.

Columns and labels:
HIV protease = target: T1, HIV protease (Human immunodeficiency virus type 1 group M subtype B, UniProt P04585); test: HIV protease enzyme assay (fluorescence, peptide substrate); format: biochemical; conditions: concentration reducing enzyme activity by 50%; substrate 80 μM, enzyme 12.3 nanomolar, pH 6.4
T1 construct: HIV protease is diluted in the assay buffer to a final enzyme concentration of 12.3 nanomolar, based on a molecular weight of 10,780
From the text: The compounds of the present invention are effective HIV protease inhibitors. Utilizing an enzyme assay as described below, the compounds set forth in the examples herein disclosed inhibited the HIV enzyme. The preferred compounds of the present invention and their calculated IC50 (inhibiting concentration 50%, i.e., the concentration at which the inhibitor compound reduces enzyme activity by 50%) values are shown in Table 16. The enzyme method is described below. The substrate is 2-Ile-Nle-Phe(p-NO2)-Gln-ArgNH2. The positive control is MVT-101 (Miller, M. et al, Science, 246, 1149 (1989)] The assay conditions are as follows:
20 mM sodium phosphate, pH 6.4
The above described substrate is dissolved in DMSO, then diluted 10 fold in assay buffer. Final substrate concentration in the assay is 80 μM.
HIV protease is diluted in the assay buffer to a final enzyme concentration of 12.3 nanomolar, based on a molecular weight of 10,780.
The final concentration of DMSO is 14% and the final concentration of glycerol is 18%. The test compound is dissolved in DMSO and diluted in DMSO to 10× the test concentration; 10 μl of the enzyme preparation is added, the materials mixed and then the mixture is incubated at ambient temperature for 15 minutes. The enzyme reaction is initiated by the addition of 40 μl of substrate. The increase in fluorescence is monitored at 4 time points (0, 8, 16 and 24 minutes) at ambient temperature. Each assay is carried out in duplicate wells.

HIV-1 in CEM cells = test: CEM cell assay: HIV inhibition in acutely infected cells, tetrazolium (MTT) colorimetric; format: cell-based; conditions: Human immunodeficiency virus 1, CCRF-CEM, 168 h
Protocol: The effectiveness of various compounds were determined in the above-described enzyme assay and in a CEM cell assay.
The HIV inhibition assay method of acutely infected cells is an automated tetrazolium based colorimetric assay essentially that reported by Pauwles et al, J. Virol. Methods, 20, 309-321 (1988). Assays were performed in 96-well tissue culture plates. CEM cells, a CD4+ cell line, were grown in RPMI-1640 medium (Gibco) supplemented with a 10% fetal calf serum and were then treated with polybrene (2 μg/ml). An 80 μl volume of medium containing 1×10^4 cells was dispensed into each well of the tissue culture plate. To each well was added a 100 μl volume of test compound dissolved in tissue culture medium (or medium without test compound as a control) to achieve the desired final concentration and the cells were incubated at 37° C. for 1 hour. A frozen culture of HIV-1 was diluted in culture medium to a concentration of 5×10^4 TCID50 per ml (TCID50=the dose of virus that infects 50% of cells in tissue culture), and a 20 μL volume of the virus sample (containing 1000 TCID50 of virus) was added to wells containing test compound and to wells containing only medium (infected control cells). Several wells received culture medium without virus (uninfected control cells). Likewise, the intrinsic toxicity of the test compound was determined by adding medium without virus to several wells containing test compound. In summary, the tissue culture plates contained the following experiments:
In experiments 2 and 4 the final concentrations of test compounds were 1, 10, 100 and 500 μg/ml. Either azidothymidine (AZT) or dideoxyinosine (ddI) was included as a positive drug control. […] DMSO was added to all control wells at an appropriate concentration.
Following the addition of virus, cells were incubated at 37° C. in a humidified, 5% CO2 atmosphere for 7 days. Test compounds could be added on days 0, 2 and 5 if desired. On day 7, post-infection, the cells in each well were resuspended and a 100 μl sample of each cell suspension was removed for assay. A 20 μL volume of a 5 mg/ml solution of 3-(4,5-dimethylthiazol-2-yl)-2,5-diphenyltetrazolium bromide (MTT) was added to each 100 μL cell suspension, and the cells were incubated for 4 hours at […] in a 5% CO2 environment. […] To each sample was added 100 μl of 10% sodium dodecylsulfate in 0.01 N HCl to lyse the cells, and samples were incubated overnight. The absorbance at 590 nm was determined for each sample using a Molecular Devices microplate reader. Absorbance values for each set of wells is compared to assess viral control infection, uninfected control cell response as well as test compound by cytotoxicity and antiviral efficacy.

[1] = CEM cells acutely infected with HIV-1, 7 days, MTT readout, read-out: EC50

Compound | IC50 (HIV protease) | EC50 (HIV-1 in CEM cells; [1]) | EC50 (HIV-1 in CEM cells)
COc1ccc(S(=O)(=O)N(CC(C)C)C[C@@H](O)[C@H](Cc2ccccc2)NC(=O)[C@H](C)CS(=O)(=O)N2CCOCC2)cc1 [Example 1] | 10 nM | 32 nM | 
COc1ccc(S(=O)(=O)N(CC(C)C)C[C@@H](O)[C@H](Cc2ccccc2)NC(=O)[C@H](C)CS(=O)(=O)N2CCN(C)CC2)cc1 [Example 2] | 8 nM |  | 77 nM
COc1ccc(S(=O)(=O)N(CC(C)C)C[C@@H](O)[C@H](Cc2ccccc2)NC(=O)[C@H](C)CS(N)(=O)=O)cc1 [Example 3] | 6 nM |  | 40 nM
COc1ccc(S(=O)(=O)N(CC(C)C)C[C@@H](O)[C@H](Cc2ccccc2)NC(=O)[C@H](C)CS(=O)(=O)N(C)C)cc1 [Example 4] | 4 nM |  | 15 nM
COc1ccc(S(=O)(=O)N(CC(C)C)C[C@@H](O)[C@H](Cc2ccccc2)NC(=O)[C@H](C)CS(=O)(=O)N2CCCCC2)cc1 [Example 5] | 13 nM |  | 210 nM
COc1ccc(S(=O)(=O)N(CC(C)C)C[C@@H](O)[C@H](Cc2ccccc2)NC(=O)[C@H](C)CS(=O)(=O)N(Cc2ccccc2)C(c2ccccc2)c2ccccc2)cc1 [Example 6] | 4 nM |  | 
COc1ccc(S(=O)(=O)N(CC(C)C)C[C@@H](O)[C@H](Cc2ccccc2)NC(=O)[C@H](C)CS(=O)(=O)NCc2ccccc2)cc1 [Example 7] | 3 nM |  | 32 nM
CC(C)CN(C[C@@H](O)[C@H](Cc1ccccc1)NC(=O)[C@H](C)CS(=O)(=O)N1CCNCC1)S(=O)(=O)c1ccc2c(c1)OCO2 [Example 8] | 9 nM | 415 nM | 
CC(C)CN(C[C@@H](O)[C@H](Cc1ccccc1)NC(=O)[C@H](C)CS(=O)(=O)N1CCN(Cc2ccccc2)CC1)S(=O)(=O)c1ccc2c(c1)OCO2 [Example 9] | 6 nM | 84 nM | 
CC(C)CN(C[C@@H](O)[C@H](Cc1ccccc1)NC(=O)[C@H](C)CS(=O)(=O)N1CCN(Cc2ccccn2)CC1)S(=O)(=O)c1ccc2c(c1)OCO2 [Example 10] | 10 nM | 56 nM | 
CC(C)CN(C[C@@H](O)[C@H](Cc1ccccc1)NC(=O)[C@H](C)CS(=O)(=O)N1CCN(Cc2cccnc2)CC1)S(=O)(=O)c1ccc2c(c1)OCO2 [Example 11] | 9 nM |  | 
CC(C)CN(C[C@@H](O)[C@H](Cc1ccccc1)NC(=O)[C@H](C)CS(=O)(=O)N1CCN(Cc2ccncc2)CC1)S(=O)(=O)c1ccc2c(c1)OCO2 [Example 12] | 9 nM | 42 nM | 
CC(C)CN(C[C@@H](O)[C@H](Cc1ccccc1)NC(=O)[C@H](C)CS(=O)(=O)N1CCCC1)S(=O)(=O)c1ccc2c(c1)OCO2 [Example 13] | 6 nM | 176 nM | 
CC(C)CN(C[C@@H](O)[C@H](Cc1ccccc1)NC(=O)[C@H](C)CS(=O)(=O)N(C)c1ccccc1)S(=O)(=O)c1ccc2c(c1)OCO2 [Example 14] | 4 nM | 85 nM | 
CC(C)CN(C[C@@H](O)[C@H](Cc1ccccc1)NC(=O)[C@H](C)CS(=O)(=O)N(C)Cc1ccccc1)S(=O)(=O)c1ccc2c(c1)OCO2 [Example 15] | 4 nM |  | 
